The subject of the assay is P388 leukemia ip, CD2F1 mice, survival T/C. As to the kind of experiment: NCI In Vivo Anticancer Drug Screen. Data for tumor model P388 Leukemia (intraperitoneal) in CD2F1 (CDF1) mice. The following applies: endpoint: median survival time, higher = longer survival. Summed up: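 Mice carrying the transplanted tumor received test compound or vehicle. Survival was recorded in each group, and the value is the treated-group measurement divided by that of the vehicle-treated control group.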

Setting [1] is: dose: 50.0 mg/kg/injection, schedule: Q01DX009 (ip), vehicle: Klucel (hydroxypropylcellulose) (HPC).
The mark [2] stands for this setting: dose: 100.0 mg/kg/injection, schedule: Q01DX009 (ip), vehicle: Klucel (hydroxypropylcellulose) (HPC).
[3] abbreviates: dose: 200.0 mg/kg/injection, schedule: Q01DX009 (ip), vehicle: Klucel (hydroxypropylcellulose) (HPC).
The mark [4] stands for this setting: dose: 60.0 mg/kg/injection, schedule: Q01DX005 (ip), vehicle: saline.
Where [5] appears, read: dose: 120.0 mg/kg/injection, schedule: Q01DX005 (ip), vehicle: saline.
Where [6] appears, read: dose: 60.0 mg/kg/injection, schedule: Q01DX005 (ip), vehicle: Klucel (hydroxypropylcellulose) (HPC).
[7] abbreviates: dose: 120.0 mg/kg/injection, schedule: Q01DX005 (ip), vehicle: Klucel (hydroxypropylcellulose) (HPC).
The mark [8] stands for this setting: dose: 240.0 mg/kg/injection, schedule: Q01DX005 (ip), vehicle: Klucel (hydroxypropylcellulose) (HPC).
Setting [9] is: dose: 100.0 mg/kg/injection, schedule: Q04DX003 (ip), vehicle: saline with Tween-80.
[10] abbreviates: dose: 200.0 mg/kg/injection, schedule: Q04DX003 (ip), vehicle: saline with Tween-80.
[11] abbreviates: dose: 25.0 mg/kg/injection, schedule: Q01DX009 (ip), vehicle: saline with Tween-80.
The mark [12] stands for this setting: dose: 50.0 mg/kg/injection, schedule: Q01DX009 (ip), vehicle: saline with Tween-80.
Where [13] appears, read: dose: 100.0 mg/kg/injection, schedule: Q01DX009 (ip), vehicle: saline with Tween-80.
[14] abbreviates: dose: 200.0 mg/kg/injection, schedule: Q01DX009 (ip), vehicle: saline with Tween-80.

Values joined by “and” are separate entries in the source; they are usually repeats but may differ in a detail not shown here. Identical values can stand only once. Inconclusive results and toxic doses are left out.

Regarding `C=C(C)[C@H]1C[C@]2(C)[C@@H](C)CC(=O)C[C@H]2[C@@H](OC(=O)/C(C)=C\C)[C@@H]1OC(=O)/C(C)=C/C`, the T/C is 100 % of control (dose: 130.0 mg/kg/injection, schedule: Q01DX001 (ip), vehicle: Klucel (hydroxypropylcellulose) (HPC)); 99 % of control (dose: 260.0 mg/kg/injection, schedule: Q01DX001 (ip), vehicle: Klucel (hydroxypropylcellulose) (HPC)); 100 % of control (dose: 520.0 mg/kg/injection, schedule: Q01DX001 (ip), vehicle: Klucel (hydroxypropylcellulose) (HPC)).

Turning to `CC1(C)CC(C)(OC(=O)c2ccccc2Cl)[N+]([O-])=N1` (stereo not drawn) (tested in a mixture with another compound), the T/C (dose: 12.5 mg/kg/injection, schedule: Q01DX009 (ip), vehicle: other) was 99 % of control; the T/C (dose: 25.0 mg/kg/injection, schedule: Q01DX009 (ip), vehicle: other) is 98 % of control; the T/C (dose: 50.0 mg/kg/injection, schedule: Q01DX009 (ip), vehicle: other) is 93 % of control; the T/C (dose: 100.0 mg/kg/injection, schedule: Q01DX009 (ip), vehicle: other) was 94 % of control; the T/C (dose: 200.0 mg/kg/injection, schedule: Q01DX009 (ip), vehicle: other) was 100 % of control.

With `CCN(CC)C1CC(O[C@H]2C[C@](O)(C(C)=O)Cc3c(O)c4c(c(O)c32)C(=O)c2c(OC)cccc2C4=O)OC(C)C1O` (stereo partly drawn), the T/C reads like this: (dose: 0.25 mg/kg/injection, schedule: Q01DX009 (ip), vehicle: water) 104 % of control; (dose: 0.5 mg/kg/injection, schedule: Q01DX009 (ip), vehicle: water) 114 % of control; (dose: 4.0 mg/kg/injection, schedule: Q01DX009 (ip), vehicle: water) 174 % of control and 183 % of control; (dose: 6.0 mg/kg/injection, schedule: Q04DX003 (ip), vehicle: water) 117 % of control; (dose: 8.0 mg/kg/injection, schedule: Q01DX009 (ip), vehicle: water) 100 % of control; (dose: 20.0 mg/kg/injection, schedule: Q04DX003 (ip), vehicle: water) 112 % of control. The T/C runs as follows: (dose: 33.3 mg/kg/injection, schedule: Q04DX003 (ip), vehicle: water) 96 % of control; (dose: 48.0 mg/kg/injection, schedule: Q04DX003 (ip), vehicle: water) 124 % of control; (dose: 96.0 mg/kg/injection, schedule: Q04DX003 (ip), vehicle: water) 93 % of control.

Turning to `Fc1ccc(-c2cc(-c3cccs3)cc(-c3ccccc3)n2)cc1`, the T/C is 121 % of control under setting [1], 102 % of control under setting [2] and 100 % of control under setting [3].

Take `CN(CCO)CC(O)Cn1cnc2c(N)ncnc21` (stereo not drawn): the T/C under setting [4] was 95 % of control; the T/C under setting [5] was 97 % of control; the T/C (dose: 240.0 mg/kg/injection, schedule: Q01DX005 (ip), vehicle: saline) is 100 % of control.

With `CCOc1ccc(N=NC2C(=O)N(c3cccc(Cl)c3Cl)C(=S)N(c3ccccc3)C2O)cc1` (stereo not drawn), the T/C is, setting by setting: (dose: 100.0 mg/kg/injection, schedule: Q01DX001 (ip), vehicle: Klucel (hydroxypropylcellulose) (HPC)) 99 % of control; (dose: 200.0 mg/kg/injection, schedule: Q01DX001 (ip), vehicle: Klucel (hydroxypropylcellulose) (HPC)) 100 % of control; (dose: 400.0 mg/kg/injection, schedule: Q01DX001 (ip), vehicle: Klucel (hydroxypropylcellulose) (HPC)) 97 % of control.

As to `CC(C(=O)O)S(=O)(=O)O` (stereo not drawn), the T/C by setting is: (dose: 20.0 mg/kg/injection, schedule: Q01DX009 (ip), vehicle: saline with Tween-80) 100 % of control; (dose: 40.0 mg/kg/injection, schedule: Q01DX009 (ip), vehicle: saline with Tween-80) 96 % of control.

On to `Cc1nnc(N)c(C#N)c1C`, for which the T/C (dose: 50.0 mg/kg/injection, schedule: Q01DX005 (ip), vehicle: saline) is 95 % of control; the T/C (dose: 100.0 mg/kg/injection, schedule: Q01DX005 (ip), vehicle: saline) was 104 % of control; the T/C (dose: 200.0 mg/kg/injection, schedule: Q01DX005 (ip), vehicle: saline) was 93 % of control.

On to `COC(=O)/C(=C/c1c[nH]c2ccccc12)NC=O`, for which the T/C runs as follows: under setting [6], 97 % of control; under setting [7], 97 % of control; under setting [8], 92 % of control.

For `COc1ccc(/C=C/C(=O)c2ccc(OC)c(OC)c2)cc1OC`, the T/C runs as follows: under setting [9], 90 % of control; under setting [10], 95 % of control; (dose: 400.0 mg/kg/injection, schedule: Q04DX003 (ip), vehicle: saline with Tween-80) 95 % of control.

Take `c1ccc(-c2nc3ccccc3o2)cc1`: the T/C is 86 % of control under setting [11], 98 % of control under setting [12], 101 % of control under setting [13] and 88 % of control under setting [14].

`O=C1SC2(CCCCC2)SC1=O`: the T/C reads like this: (dose: 50.0 mg/kg/injection, schedule: Q04DX003 (ip), vehicle: saline with Tween-80) 109 % of control; under setting [9], 104 % of control; under setting [10], 104 % of control.

With `Cc1ccc(N=Cc2ccc(C=Nc3ccc(C)c(Cl)c3)cc2)cc1Cl`, the T/C by setting is: under setting [1], 92 % of control; under setting [2], 91 % of control; under setting [3], 100 % of control.

Consider `CCCNCC/C=C/[Si](C)(C)C`, for which the T/C runs as follows: under setting [4], 105 % of control; under setting [5], 100 % of control.

`N#C/C(=C1C=C(Br)/C(=N\O)C=C\1Cl)c1cccc2ccccc12`: the T/C was 103 % of control under setting [12]; 102 % of control under setting [13]; 102 % of control under setting [14]; 115 % of control (dose: 400.0 mg/kg/injection, schedule: Q01DX009 (ip), vehicle: saline with Tween-80).

On to `CC1OC(n2cc(F)c(=O)[nH]c2=O)CC1O` (stereo not drawn), for which the T/C runs as follows: (dose: 50.0 mg/kg/injection, schedule: Q01DX001 (ip), vehicle: saline) 104 % of control; (dose: 100.0 mg/kg/injection, schedule: Q01DX001 (ip), vehicle: saline) 106 % of control; (dose: 200.0 mg/kg/injection, schedule: Q01DX001 (ip), vehicle: saline) 105 % of control.

In the case of `C/C(=C\C(=O)Nc1ncn[nH]1)Nc1ncn[nH]1`, the T/C is 107 % of control under setting [1]; 100 % of control under setting [2]; 100 % of control under setting [3]; 99 % of control (dose: 400.0 mg/kg/injection, schedule: Q01DX009 (ip), vehicle: Klucel (hydroxypropylcellulose) (HPC)).

With `CCN(Cc1ccc(CN(CC)C(=O)c2sc3ccccc3c2Cl)cc1)C(=O)c1sc2ccccc2c1Cl`, the T/C (dose: 50.0 mg/kg/injection, schedule: Q01DX009 (ip), vehicle: saline) was 101 % of control; the T/C (dose: 100.0 mg/kg/injection, schedule: Q01DX009 (ip), vehicle: saline) is 100 % of control; the T/C (dose: 200.0 mg/kg/injection, schedule: Q01DX009 (ip), vehicle: saline) was 93 % of control.

Take `Cc1cc(NCCc2ccccc2)cc(=O)n1CCc1ccccc1`: the T/C by setting is: under setting [6], 97 % of control; under setting [7], 100 % of control; under setting [8], 94 % of control.

As to `CCCCOc1cc(C(=O)NCCN(CC)CC)c2ccccc2n1`, the T/C runs as follows: (dose: 6.25 mg/kg/injection, schedule: Q01DX009 (ip), vehicle: saline with Tween-80) 100 % of control; (dose: 12.5 mg/kg/injection, schedule: Q01DX009 (ip), vehicle: saline with Tween-80) 113 % of control; under setting [11], 100 % of control.

Turning to `Cc1ccc(NC(=O)Oc2ccc(Cl)cc2)c([N+](=O)[O-])c1`, the T/C is 109 % of control under setting [12], 100 % of control under setting [13] and 105 % of control under setting [14].

Turning to `Cc1ccc(NC(=O)Oc2ccc(C(C)(C)C)cc2Br)c([N+](=O)[O-])c1`, the T/C under setting [12] is 96 % of control, the T/C under setting [13] was 97 % of control and the T/C under setting [14] is 101 % of control.

`Nc1ncnc2c1c1c(=S)nc[nH]c1n2C1OC(CO)C(O)C1O` (stereo not drawn): the T/C is 158 % of control (dose: 25.0 mg/kg/injection, schedule: Q01DX009 (ip), vehicle: water); 165 % of control (dose: 50.0 mg/kg/injection, schedule: Q01DX009 (ip), vehicle: water); 177 % of control (dose: 100.0 mg/kg/injection, schedule: Q01DX009 (ip), vehicle: water).

(Values after PubChem BioAssay AID330 (DTP/NCI, 2004).)
